pIC50: −log10 of the molar value.
How the values were obtained:
Type in all cases: cell-based
human TLR8 = target: T1, human TLR8 (Homo sapiens, UniProt Q9NR97); assay: TLR8 inhibition reporter assay (HEK-Blue cells, SEAP reporter, R848 stimulation); conditions: HEK-Blue cells overexpressing human TLR8, SEAP reporter, R848 15.9 μM
T1 construct: host or cells: HEK-Blue cells (HEK293-derived reporter line)
T1 sequence (Q9NR97 27-1041): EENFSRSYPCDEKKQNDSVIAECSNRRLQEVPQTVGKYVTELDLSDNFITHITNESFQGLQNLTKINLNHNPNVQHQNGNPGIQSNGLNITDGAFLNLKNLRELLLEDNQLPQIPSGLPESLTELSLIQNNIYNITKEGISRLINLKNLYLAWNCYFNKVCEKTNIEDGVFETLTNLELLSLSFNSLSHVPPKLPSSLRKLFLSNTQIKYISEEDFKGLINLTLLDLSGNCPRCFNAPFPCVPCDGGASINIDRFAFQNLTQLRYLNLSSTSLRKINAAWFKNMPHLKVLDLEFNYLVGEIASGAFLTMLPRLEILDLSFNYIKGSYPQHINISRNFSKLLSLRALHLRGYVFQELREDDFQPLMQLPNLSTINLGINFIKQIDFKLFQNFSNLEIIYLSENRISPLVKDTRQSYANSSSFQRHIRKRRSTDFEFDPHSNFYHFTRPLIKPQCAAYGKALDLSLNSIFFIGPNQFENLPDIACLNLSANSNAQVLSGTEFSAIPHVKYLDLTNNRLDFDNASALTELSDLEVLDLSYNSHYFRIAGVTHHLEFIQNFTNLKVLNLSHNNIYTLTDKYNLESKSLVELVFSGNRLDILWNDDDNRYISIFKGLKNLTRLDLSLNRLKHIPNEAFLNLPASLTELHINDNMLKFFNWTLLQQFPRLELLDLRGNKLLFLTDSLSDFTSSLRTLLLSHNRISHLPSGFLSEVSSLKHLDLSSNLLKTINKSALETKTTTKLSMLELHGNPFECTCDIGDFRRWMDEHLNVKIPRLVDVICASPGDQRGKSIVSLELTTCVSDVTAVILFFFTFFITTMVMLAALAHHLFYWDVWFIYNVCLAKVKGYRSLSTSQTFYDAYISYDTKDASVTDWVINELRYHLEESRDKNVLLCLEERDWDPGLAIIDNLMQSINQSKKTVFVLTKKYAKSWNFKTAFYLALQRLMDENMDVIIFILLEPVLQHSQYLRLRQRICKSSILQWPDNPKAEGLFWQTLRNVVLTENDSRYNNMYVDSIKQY
Outline: (§1)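 Cells seeded per well (15000 TLR7, 20,000 TLR8, 25,000 TLR9); compound added over 0.05 nM–50 μM for 30 min at room temperature; agonist added (TLR7 gardiquimod 7.5 μM, TLR8 R848 15.9 μM, TLR9 ODN2006 5 nM); 22 h at 37 °C; SEAP measured; percent inhibition calculated.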

human TLR7 = target: T2, human TLR7 (Homo sapiens, UniProt Q9NYK1); assay: TLR7 inhibition reporter assay (HEK-Blue cells, SEAP reporter, gardiquimod stimulation); conditions: HEK-Blue cells overexpressing human TLR7, SEAP reporter, gardiquimod 7.5 μM
T2 construct: host or cells: HEK-Blue cells (HEK293-derived reporter line)
T2 sequence (Q9NYK1 27-1049): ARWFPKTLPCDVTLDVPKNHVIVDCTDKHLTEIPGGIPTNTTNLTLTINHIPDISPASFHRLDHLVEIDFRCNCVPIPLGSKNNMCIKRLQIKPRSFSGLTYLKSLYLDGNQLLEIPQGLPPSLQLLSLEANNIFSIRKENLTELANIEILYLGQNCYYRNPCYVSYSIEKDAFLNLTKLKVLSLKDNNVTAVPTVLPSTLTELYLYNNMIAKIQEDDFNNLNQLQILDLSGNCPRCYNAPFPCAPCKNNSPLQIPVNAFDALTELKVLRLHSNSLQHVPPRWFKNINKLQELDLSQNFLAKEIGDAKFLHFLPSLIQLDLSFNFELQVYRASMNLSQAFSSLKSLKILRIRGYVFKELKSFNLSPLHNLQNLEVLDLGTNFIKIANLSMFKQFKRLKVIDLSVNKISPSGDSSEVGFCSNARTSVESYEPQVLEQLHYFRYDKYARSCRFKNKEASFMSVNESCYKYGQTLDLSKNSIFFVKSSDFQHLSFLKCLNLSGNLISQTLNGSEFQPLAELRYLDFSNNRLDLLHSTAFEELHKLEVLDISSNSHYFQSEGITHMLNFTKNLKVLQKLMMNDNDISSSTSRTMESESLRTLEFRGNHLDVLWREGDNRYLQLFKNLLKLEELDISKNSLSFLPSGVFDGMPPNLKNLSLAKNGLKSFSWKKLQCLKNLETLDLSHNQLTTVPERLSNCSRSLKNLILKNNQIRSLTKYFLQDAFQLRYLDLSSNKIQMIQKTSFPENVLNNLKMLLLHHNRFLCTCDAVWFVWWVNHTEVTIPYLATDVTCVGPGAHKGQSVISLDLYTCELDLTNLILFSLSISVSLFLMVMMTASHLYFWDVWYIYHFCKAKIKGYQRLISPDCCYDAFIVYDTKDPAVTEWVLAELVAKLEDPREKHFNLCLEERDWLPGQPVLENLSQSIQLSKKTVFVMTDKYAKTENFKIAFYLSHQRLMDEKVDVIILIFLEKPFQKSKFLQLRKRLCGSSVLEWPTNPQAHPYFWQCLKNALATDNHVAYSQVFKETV
Outline: as §1

human TLR9 = target: T3, human TLR9 (Homo sapiens, UniProt Q9NR96); assay: TLR9 inhibition reporter assay (HEK-Blue cells, SEAP reporter, ODN2006 stimulation); conditions: HEK-Blue cells overexpressing human TLR9, SEAP reporter, ODN2006 5 nM
T3 construct: host or cells: HEK-Blue cells (HEK293-derived reporter line)
T3 sequence (Q9NR96 26-1032): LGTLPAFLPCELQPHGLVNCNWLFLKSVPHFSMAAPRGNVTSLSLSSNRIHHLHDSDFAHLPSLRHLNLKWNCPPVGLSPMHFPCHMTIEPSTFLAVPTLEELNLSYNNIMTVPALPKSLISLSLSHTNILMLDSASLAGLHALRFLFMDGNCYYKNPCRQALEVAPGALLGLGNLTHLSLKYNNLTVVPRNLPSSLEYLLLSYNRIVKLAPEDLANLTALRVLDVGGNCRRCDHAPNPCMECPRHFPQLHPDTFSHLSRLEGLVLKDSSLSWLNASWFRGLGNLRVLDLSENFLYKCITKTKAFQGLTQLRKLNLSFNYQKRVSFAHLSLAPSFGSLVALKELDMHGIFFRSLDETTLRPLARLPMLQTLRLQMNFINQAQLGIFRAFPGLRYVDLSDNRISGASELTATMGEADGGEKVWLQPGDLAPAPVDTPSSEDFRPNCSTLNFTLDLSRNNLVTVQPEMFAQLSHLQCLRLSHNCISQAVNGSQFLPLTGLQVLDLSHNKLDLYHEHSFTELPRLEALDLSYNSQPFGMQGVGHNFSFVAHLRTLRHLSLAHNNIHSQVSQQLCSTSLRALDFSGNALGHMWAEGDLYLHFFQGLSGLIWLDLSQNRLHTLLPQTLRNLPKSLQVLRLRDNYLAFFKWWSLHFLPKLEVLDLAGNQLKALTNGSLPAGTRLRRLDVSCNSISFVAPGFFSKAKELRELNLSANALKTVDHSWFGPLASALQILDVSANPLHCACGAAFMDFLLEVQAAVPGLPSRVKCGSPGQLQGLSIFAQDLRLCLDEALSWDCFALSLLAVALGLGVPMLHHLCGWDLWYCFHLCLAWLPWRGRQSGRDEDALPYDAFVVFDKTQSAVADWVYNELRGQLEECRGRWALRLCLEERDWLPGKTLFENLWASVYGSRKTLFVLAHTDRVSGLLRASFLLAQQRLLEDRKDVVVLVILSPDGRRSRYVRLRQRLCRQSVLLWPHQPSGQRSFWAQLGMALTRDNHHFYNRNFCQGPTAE
Outline: as §1

SMILES	pIC50 (human TLR8)	pIC50 (human TLR7)	pIC50 (human TLR9)
CC(C)c1c(-c2ccnc3[nH]ncc23)[nH]c2ccc(C3CCN(Cc4ccc(Oc5ncccn5)cc4)CC3)cc12 [Example 899, 4-(3-isopropyl-5-(1-(4-(pyrimidin-2-yloxy)benzyl)piperidin-4-yl)-1H-indol-2-yl)-1H-pyrazolo[3,4-b]pyridine]	> 7.00	> 7.00	6.00 to 7.00
CC(C)c1c(-c2ccnc3[nH]ncc23)[nH]c2ccc(C3CCN(C(=O)CCN4CCCCC4)CC3)cc12 [Example 641, 1-(4-(3-isopropyl-2-(1H-pyrazolo[3,4-b]pyridin-4-yl)-1H-indol-5-yl)piperidin-1-yl)-3-(piperidin-1-yl)propan-1-one]	> 7.00	> 7.00	4.30 to 6.00
Cc1c(-c2[nH]c3ccc(C4CCN(CC(=O)N(C)C)CC4)cc3c2C(C)C)cn2ccnc2c1Cl [Example 415, 2-(4-(2-(8-chloro-7-methylimidazo[1,2-a]pyridin-6-yl)-3-isopropyl-1H-indol-5-yl)piperidin-1-yl)-N,N-dimethylacetamide]	> 7.00	> 7.00	4.30 to 6.00
CC(C)c1c(-c2ccnc3[nH]ncc23)[nH]c2ccc(C3CCN(C(=O)CNCC(C)(C)N4CCOCC4)CC3)cc12 [Example 580, 1-(4-(3-isopropyl-2-(1H-pyrazolo[3,4-b]pyridin-4-yl)-1H-indol-5-yl)piperidin-1-yl)-2-((2-methyl-2-morpholinopropyl)amino)ethan-1-one]	> 7.00	> 7.00	4.30 to 6.00
CNC(=O)CN1CCC(c2ccc3[nH]c(-c4cc(C)c5ncsc5n4)c(C(C)C)c3c2)CC1 [Example 406, 2-(4-(3-isopropyl-2-(7-methylthiazolo[5,4-b]pyridin-5-yl)-1H-indol-5-yl)piperidin-1-yl)-N-methylacetamide]	> 7.00	> 7.00	4.30 to 6.00
CC(C)c1c(-c2ccnc3[nH]c(=O)oc23)[nH]c2ccc(C3CCNCC3)cc12 [Example 58, 7-(3-isopropyl-5-(piperidin-4-yl)-1H-indol-2-yl)oxazolo[4,5-b]pyridin-2(3H)-one]	4.30 to 6.00	4.30 to 6.00	4.30 to 6.00
CCc1c(C)c(-c2[nH]c3ccc(C4CCN(CC(=O)NC)CC4)cc3c2C(C)C)cn2ccnc12 [Example 418, 2-(4-(2-(8-ethyl-7-methylimidazo[1,2-a]pyridin-6-yl)-3-isopropyl-1H-indol-5-yl)piperidin-1-yl)-N-methylacetamide]	6.00 to 7.00	> 7.00	4.30 to 6.00
CC(C)c1c(-c2ccc3cnnn3c2)[nH]c2ccc(C3CCN(C4COC4)CC3)cc12 [Example 734, 6-(3-isopropyl-5-(1-(oxetan-3-yl)piperidin-4-yl)-1H-indol-2-yl)-[1,2,3]triazolo[1,5-a]pyridine]	6.00 to 7.00	6.00 to 7.00	4.30 to 6.00
Cc1nc[nH]c1CN1CCC(c2ccc3[nH]c(-c4ccnc5[nH]cnc45)c(C(C)C)c3c2)CC1 [Example 861, 7-(3-isopropyl-5-(1-((4-methyl-1H-imidazol-5-yl)methyl)piperidin-4-yl)-1H-indol-2-yl)-3H-imidazo[4,5-b]pyridine]	> 7.00	> 7.00	6.00 to 7.00
CCCN1CCC(c2ccc3[nH]c(-c4cc(OC)c5ncnn5n4)c(C(C)C)c3c2)CC1 [Example 952, 6-(3-isopropyl-5-(1-propylpiperidin-4-yl)-1H-indol-2-yl)-8-methoxy-[1,2,4]triazolo[1,5-b]pyridazine]	> 7.00	> 7.00	4.30 to 6.00

Continued, values first:

pIC50 (human TLR8)	pIC50 (human TLR7)	pIC50 (human TLR9)	SMILES
6.00 to 7.00	6.00 to 7.00	4.30 to 6.00	CCc1c(-c2ccnc3[nH]ncc23)[nH]c2ccc(C3CCN(Cc4c[nH]c(-c5ccccc5)n4)CC3)cc12 [Example 908, 4-(3-ethyl-5-(1-((2-phenyl-1H-imidazol-4-yl)methyl)piperidin-4-yl)-1H-indol-2-yl)-1H-pyrazolo[3,4-b]pyridine]
> 7.00	> 7.00	6.00 to 7.00	Cc1nc(CN2CCC(c3ccc4[nH]c(-c5ccnc6[nH]ncc56)c(C(C)C)c4c3)CC2)c2ccccn12 [Example 868, 4-(3-isopropyl-5-(1-((3-methylimidazo[1,5-a]pyridin-1-yl)methyl)piperidin-4-yl)-1H-indol-2-yl)-1H-pyrazolo[3,4-b]pyridine]
4.30 to 6.00	6.00 to 7.00	4.30 to 6.00	CC(C)c1c(-c2ccnc3[nH]c(=O)[nH]c23)[nH]c2ccc(C3CCNCC3)cc12 [Example 57, 7-(3-isopropyl-5-(piperidin-4-yl)-1H-indol-2-yl)-1,3-dihydro-2H-imidazo[4,5-b]pyridin-2-one]
4.30 to 6.00	4.30 to 6.00	< 4.30	CCc1c(-c2cccc3[nH]ncc23)[nH]c2ccc(C3CCN(CC(=O)NC)CC3)cc12 [Example 388, 2-(4-(3-ethyl-2-(1H-indazol-4-yl)-1H-indol-5-yl)piperidin-1-yl)-N-methylacetamide]

Source: patent US11739098B2 (BRISTOL-MYERS SQUIBB COMPANY, priority 2017, dated 2023)
